Data taken from ChEMBL document CHEMBL4342418, “1,2,3-Triazole-containing hybrids as potential anticancer agents: Current developments, action mechanisms and structure-activity relationships” (Eur J Med Chem, 2019).

Legend:
PC-3 [1] = assay: cells; assay type: functional, cell-based; conditions: Homo sapiens, PC-3, 48 h
Description: Antiproliferative activity against human PC3 cells assessed as reduction in cell viability after 48 hrs by MTT assay

MCF7 [2] = assay: Antiproliferative activity against human MCF7 cells assessed as reduction in cell viability after 72 hrs by MTT assay; assay type: functional, cell-based; conditions: MCF7, 72 h
HT-29 [3] = assay: Antiproliferative activity against human HT-29 cells assessed as reduction in cell viability after 48 hrs by MTT assay; assay type: functional, cell-based; conditions: HT-29, 48 h
HGC-27 = assay: Antiproliferative activity against human HGC27 cells assessed as reduction in cell viability after 48 hrs by MTT assay; assay type: functional, cell-based; conditions: HGC-27, 48 h
[4] = Antiproliferative activity against BAEC cells assessed as reduction in cell viability after 3 days by coulter counting method; assay type: functional, cell-based; conditions: Bos taurus, 72 h
L1210 = assay: Antiproliferative activity against mouse L1210 cells assessed as reduction in cell viability after 3 days by coulter counting method; assay type: functional, cell-based; conditions: L1210, 72 h
HBL-100 = assay: Antiproliferative activity against human HBL100 cells by MTT assay; assay type: functional, cell-based
A549 [5] = assay: cells; assay type: functional, cell-based; conditions: Homo sapiens
Description: Antiproliferative activity against human A549 cells by MTT assay

SW1573 = assay: Antiproliferative activity against human SW1573 cells by MTT assay; assay type: functional, cell-based
WiDr = assay: Antiproliferative activity against human WiDr cells by MTT assay; assay type: functional, cell-based
HeLa [6] = assay: Antiproliferative activity against human HeLa cells by MTT assay; assay type: functional, cell-based
T47D [7] = assay: Antiproliferative activity against human T47D cells by MTT assay; assay type: functional, cell-based
hTERT-BJ = assay: Cytotoxicity activity against human hTERT-BJ cells by MTT assay; assay type: cell-based
MCF7 [8] = assay: cells; assay type: functional, cell-based; conditions: Homo sapiens
Description: Antiproliferative activity against human MCF7 cells by MTT assay

ECa-109 cell line = assay: Antiproliferative activity against human EC109 cells by MTT assay; assay type: functional, cell-based
[9] = Antiproliferative activity against human HCG27 cells by MTT assay; assay type: functional, cell-based
MGC-803 = assay: Antiproliferative activity against human MGC803 cells by MTT assay; assay type: functional, cell-based
HeLa [10] = assay: Antiproliferative activity against human HeLa cells assessed as reduction in cell viability after 72 hrs by MTT assay; assay type: functional, cell-based
T47D [11] = assay: Antiproliferative activity against human T47D cells assessed as reduction in cell viability after 72 hrs by MTT assay; assay type: functional, cell-based
A-431 = assay: Antiproliferative activity against human A431 cells assessed as reduction in cell viability after 72 hrs by MTT assay; assay type: functional, cell-based; conditions: A-431, 72 h
[12] = Antiproliferative activity against human […] cells assessed as reduction in cell viability after 72 hrs by MTT assay; assay type: functional, cell-based
MDA-MB-231 [13] = assay: Antiproliferative activity against human MDA-MB-231 cells assessed as reduction in cell viability after 72 hrs by MTT assay; assay type: functional, cell-based; conditions: MDA-MB-231, 72 h, read-out: IC50
A2780 = assay: Antiproliferative activity against human A2780 cells assessed as reduction in cell viability after 72 hrs by MTT assay; assay type: functional, cell-based; conditions: A2780, 72 h
MCF7 [14] = assay: Antiproliferative activity against human MCF7 cells assessed as reduction in cell viability after 24 hrs by MTT assay; assay type: functional, cell-based; conditions: MCF7, 24 h
MDA-MB-231 [15] = assay: Antiproliferative activity against human MDA-MB-231 cells assessed as reduction in cell viability after 24 hrs by MTT assay; assay type: functional, cell-based; conditions: MDA-MB-231, 24 h
HCT-116 [16] = assay: Antiproliferative activity against human HCT116 cells by MTT assay; assay type: functional, cell-based
K562 [17] = assay: Antiproliferative activity against human K562 cells by MTT assay; assay type: functional, cell-based
LoVo = assay: Antiproliferative activity against human LoVo cells by MTT assay; assay type: functional, cell-based
HepG2 [18] = assay: Antiproliferative activity against human HepG2 cells by MTT assay; assay type: functional, cell-based
K562 [19] = assay: Antiproliferative activity against human K562 cells assessed as reduction in cell viability after 24 hrs by MTT assay; assay type: functional, cell-based; conditions: K562, 24 h
PBMC = assay: Cytotoxicity against human PBMC cells assessed as reduction in cell viability after 24 hrs by MTT assay; assay type: cell-based
K562-Lucena 1 = assay: Antiproliferative activity against human K562-Lucena 1 cells assessed as reduction in cell viability after 24 hrs by MTT assay; assay type: functional, cell-based; conditions: K562-Lucena 1, 24 h
HL-60 = assay: Antiproliferative activity against human HL60 cells assessed as reduction in cell viability after 24 hrs by MTT assay; assay type: functional, cell-based; conditions: HL-60, 24 h
SK-N-SH = assay: Antiproliferative activity against human SK-N-SH cells by MTT assay; assay type: functional, cell-based
A549 [20] = assay: Antitumour activity against human A549 cells xenografted in Kunming mice assessed as tumour growth inhibition at 20 mg/kg, iv bid administered and measured after week relative to control; assay type: functional; conditions: Mus musculus, read-out: TGI
U-87 MG = assay: Antiproliferative activity against human U87MG cells assessed as reduction in cell viability after 48 hrs by MTT assay; assay type: functional, cell-based, U-87MG ATCC
MKN-28 = assay: Antiproliferative activity against human MKN28 cells by MTT assay; assay type: functional, cell-based
HeLa [21] = assay: Antiproliferative activity against human HeLa cells assessed as reduction in cell viability after 24 hrs by MTT assay; assay type: functional, cell-based
MDA-MB-468 = assay: Antiproliferative activity against human MDA-MB-468 cells assessed as reduction in cell viability after 72 hrs by MTT assay; assay type: functional, cell-based; conditions: MDA-MB-468, 72 h
MKN-45 = assay: Antiproliferative activity against human MKN45 cells by MTT assay; assay type: functional, cell-based
A549 [22] = assay: Antiproliferative activity against human A549 cells assessed as reduction in cell viability after 48 hrs by MTT assay; assay type: functional, cell-based; conditions: A549, 48 h
PC-3 [23] = assay: Antiproliferative activity against human PC3 cells assessed as reduction in cell viability after 24 hrs by MTT assay; assay type: functional, cell-based; conditions: PC-3, 24 h
HepG2 [24] = assay: Antiproliferative activity against human HepG2 cells assessed as reduction in cell viability after 24 hrs by MTT assay; assay type: functional, cell-based; conditions: HepG2, 24 h
DU-145 = assay: Antiproliferative activity against human DU145 cells assessed as reduction in cell viability after 48 hrs by MTT assay; assay type: functional, cell-based; conditions: DU-145, 48 h
HeLa [25] = assay: Antiproliferative activity against human HeLa cells assessed as reduction in cell viability after 48 hrs by MTT assay; assay type: functional, cell-based
SK-OV-3 = assay: Antiproliferative activity against human SKOV3 cells assessed as reduction in cell viability after 48 hrs by MTT assay; assay type: functional, cell-based; conditions: SK-OV-3, 48 h
MCF7 [26] = assay: Potency index, ratio of Sorafenib IC50 to test compound IC50 for antiproliferative activity against human MCF7 cells; assay type: functional
HT-29 [27] = assay: Potency index, ratio of Sorafenib IC50 to test compound IC50 for antiproliferative activity against human HT-29 cells; assay type: functional
HT-29 [28] = assay: Antiproliferative activity against human HT-29 cells assessed as reduction in cell viability after 72 hrs by MTT assay; assay type: functional, cell-based; conditions: HT-29, 72 h
HCT-116 [29] = assay: Antiproliferative activity against human HCT116 cells assessed as reduction in cell viability after 24 hrs by MTT assay; assay type: functional, cell-based; conditions: HCT-116, 24 h
Erythrocyte = assay: Cytotoxicity against human RBC cells assessed as reduction in cell viability after 24 hrs by MTT assay; assay type: cell-based
[30] = Cytotoxicity against human HEK cells assessed as reduction in cell viability after 24 hrs by MTT assay; assay type: cell-based; conditions: HEK293, 24 h

COc1ccc2c(c1)[nH]c1c(C)nccc12 [HARMINE]
IC50 (PC-3 [1]): 3.52 to 24.4 µM
IC50 (MCF7 [2]): 3.52 to 24.4 µM
IC50 (HT-29 [3]): 3.52 to 24.4 µM
IC50 (HGC-27): 3.52 to 24.4 µM

CS(=O)(=O)c1ccc(-c2cn(-c3cccc(-c4ccccn4)c3)nn2)cc1
IC50 [4]: 100 µM
IC50 (L1210): 100 µM

C=CCC1CC(Cc2cn([C@@H](Cc3ccccc3)c3nc(C(=O)OC)co3)nn2)CC(O[Si](C)(C)C(C)(C)C)C1 (some centres undefined)
IC50 (HBL-100): 3.1 to 6.6 µM
IC50 (A549 [5]): 3.1 to 6.6 µM
IC50 (SW1573): 3.1 to 6.6 µM
IC50 (WiDr): 3.1 to 6.6 µM
IC50 (HeLa [6]): 3.1 to 6.6 µM
IC50 (T47D [7]): 3.1 to 6.6 µM
IC50 (hTERT-BJ): 53 µM

Cc1ccc(Cn2cc(CSc3nc(Nc4ccccc4)c4ccccc4n3)nn2)cc1
IC50 (MCF7 [8]): 0.57 to 7.13 µM
IC50 (ECa-109 cell line): 0.57 to 7.13 µM
IC50 [9]: 0.57 to 7.13 µM
IC50 (MGC-803): 0.57 to 7.13 µM

CCc1ccc(-c2cn([C@H]3C[C@H]4[C@@H]5CCc6cc(OCc7ccccc7)ccc6[C@H]5CC[C@@]4(C)[C@@H]3O)nn2)cc1
IC50 (HeLa [10]): 2.4 to 8.3 µM
IC50 (MCF7 [2]): 2.4 to 8.3 µM
IC50 (T47D [11]): 2.4 to 8.3 µM
IC50 (A-431): 2.4 to 8.3 µM
IC50 [12]: 2.4 to 8.3 µM
IC50 (MDA-MB-231 [13]): 2.4 to 8.3 µM
IC50 (A2780): 2.4 to 8.3 µM

COc1ccc(-c2nc(Cn3cc(CN4C(=O)c5cccc6cccc(c56)C4=O)nn3)cc3c2[nH]c2ccccc23)cc1OC
IC50 (PC-3 [1]): 3.67 to 26.5 µM
IC50 (MCF7 [2]): 3.67 to 26.5 µM
IC50 (HT-29 [3]): 3.67 to 26.5 µM
IC50 (HGC-27): 3.67 to 26.5 µM

Cc1ncc([N+](=O)[O-])n1Cc1cn(CCCCCN2C(=O)C(=O)c3cc(Cl)ccc32)nn1
IC50 (MCF7 [14]): 20.8 µM
IC50 (MDA-MB-231 [15]): 16.1 µM

O=C(CCCCCCC(=O)Nc1ccccc1)NO [VORINOSTAT]
IC50 (HCT-116 [16]): 4.95 to 7.11 µM
IC50 (K562 [17]): 4.95 to 7.11 µM
IC50 (LoVo): 4.95 to 7.11 µM
IC50 (HepG2 [18]): 4.95 to 7.11 µM

COc1ccc(-c2cn(C3=CC(=O)c4ccccc4C3=O)nn2)cc1
IC50 (K562 [19]): 14.3 to 99.2 µM
IC50 (PBMC): 14.3 to 99.2 µM
IC50 (K562-Lucena 1): 14.3 to 99.2 µM
IC50 (HL-60): 14.3 to 99.2 µM

O=c1[nH]cc(F)c(=O)[nH]1 [FLUOROURACIL]
IC50 (MCF7 [8]): 30 µg/mL
IC50 (SK-N-SH): 7.22 to 10.3 µM
inhibition in vivo at 20 mg/kg (A549 [20]): 64.7%
IC50 (U-87 MG): 2.42 to 3.61 µM
IC50 (PC-3 [1]): 2.42 to 3.61 µM
IC50 (HBL-100): 4.3 to 49 µM
IC50 (MKN-28): 6.9 to 19.4 µM
IC50 (A549 [5]): 4.3 to 49 µM
IC50 (MCF7 [2]): 7.5 to 12.7 µM
IC50 (HepG2 [18]): 7.22 to 10.3 µM
IC50 (HeLa [21]): 1.6 to 1.9 µM
IC50 (HT-29 [3]): 2.42 to 3.61 µM
IC50 (SW1573): 4.3 to 49 µM
IC50 (WiDr): 4.3 to 49 µM
IC50 (ECa-109 cell line): 6.5 to 14.6 µM
IC50 [9]: 6.5 to 14.6 µM
IC50 (MDA-MB-468): 7.5 to 12.7 µM
IC50 (HeLa [6]): 4.3 to 49 µM
IC50 (MDA-MB-231 [15]): 1.6 to 1.9 µM
IC50 (MDA-MB-231 [13]): 7.5 to 12.7 µM
IC50 (T47D [7]): 4.3 to 49 µM
IC50 (MKN-45): 6.9 to 19.4 µM
IC50 (MGC-803): 6.5 to 14.6 µM
IC50 (A549 [22]): 2.42 to 3.61 µM
IC50 (PC-3 [23]): 1.6 to 1.9 µM
IC50 (HepG2 [24]): 1.6 to 1.9 µM
IC50 (hTERT-BJ): 5.5 µM

CCc1ccc(-n2cc(CNC(=O)C(=O)c3c[nH]c4ccccc34)nn2)cc1
IC50 (DU-145): 8.17 µM
IC50 (HeLa [25]): > 100 µM
IC50 (SK-OV-3): > 100 µM

CNC(=O)c1cc(Oc2ccc(-n3cc(-c4ccccc4F)nn3)cc2)ccn1
Ratio IC50 (MCF7 [26]): 6.2 - 131.2
Ratio IC50 (HT-29 [27]): 6.2 - 131.2
IC50 (HT-29 [28]): 0.2 to 0.84 µM
IC50 (MCF7 [2]): 0.2 to 0.84 µM

COc1cc2nc(Cl)nc(Nc3ccc(Cn4cc(-c5ccccc5)nn4)cc3)c2cc1OC
IC50 (HCT-116 [29]): 20.7 to 68 µM
IC50 (Erythrocyte): 45.6 µM
IC50 [30]: 40.3 µM
IC50 (MCF7 [14]): 20.7 to 68 µM
IC50 (PBMC): 37.4 µM
IC50 (PC-3 [23]): 20.7 to 68 µM
IC50 (HepG2 [24]): 20.7 to 68 µM
